Assay results published in patent publication US9980943B2, “Methods of treating muscular dystrophy” (BOARD OF REGENTS OF THE NEVADA SYSTEM OF HIGHER EDUCATION, …, priority 2013, dated 2018).

Experiments:
Format in all cases: cell-based, mouse
[1] = system: α7 integrin (LacZ reporter in α7βgal+/− myoblasts); assay: Myoblast α7+/LacZ integrin FDG assay (Burkin assay in myoblasts, 96-well); details: for Burkin Assay in Myoblasts, signal relative to DMSO: α7+/LacZ myoblasts, 96-well
[2] = system: α7 integrin (LacZ reporter in α7+/LacZ myotubes); assay: Myotube α7 integrin FDG assay (Burkin assay in myotubes, 96-well); details: for Burkin Assay in Myotubes, value relative to DMSO: SU9516 analogs, 96-well, N=3-6
[3] = system: β-galactosidase in CMV-LacZ C2C12 myotubes; assay: CMV-LacZ secondary screen in C2C12 myotubes (β-Gal stabilizing assay); details: for CMV-LACZ in Myotubes, value relative to DMSO: SU9516 analogs, C2C12 CMV-LacZ, N=2; for CMV-LACZ in Myotubes, signal relative to DMSO: C2C12 CMV-LacZ myotubes, fold relative to DMSO
Summary of the method: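 β-gal stabilization was measured in C2C12 myoblasts or myotubes stably transfected with a CMV-driven LacZ construct, using the FDG β-gal assay. Compounds were tested in dose-response at 0.5, 1, 5, 10, 20 and 40 μM, with two replicates per point.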

[4] = system: β-galactosidase in CMV-LacZ C2C12 myoblasts; assay: CMV-LacZ secondary screen in C2C12 myoblasts (β-Gal stabilizing assay); details: for CMV-LACZ in Myoblasts, value relative to DMSO: SU9516 analogs, C2C12 CMV-LacZ, N=2; for CMV-LACZ in Myoblasts (β-galactosidase activity relative to DMSO): CMV-LacZ C2C12 myoblasts
Summary of the method: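 First, C2C12 myoblasts were transfected with a linearized CMV-LACZ vector and clonal lines selected by FDG β-gal assay. Then cells were exposed to compounds at 0.5, 1, 5, 10, 20 and 40 μM in 96-well format, two replicates each, and β-gal measured.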

[5] = Mus musculus, Myoblast, 48 h, read-out: Burkin Assay in Myoblasts, value relative to DMSO

Compound `O=C1Nc2ccccc2/C1=C/c1ccnc2ccccc12` [MLS001182278-01] has a fold induction at 0.5 µM [1, 5] of 1.21, a fold induction at 1 µM [1, 5] of 1.07 and a fold induction at 5 µM [1, 5] of 1.06. For the same compound, the fold induction at 10 µM [1, 5] was 1.17, the fold induction at 20 µM [1, 5] was 0.766 and the fold induction at 40 µM [1, 5] was 0.842. The “Burkin Assay in Myotubes, value relative to DMSO” value ([2]; 0.5 uM) was 1.1969, the “Burkin Assay in Myotubes, value relative to DMSO” value ([2]; 1 uM) was 1.118 and the “Burkin Assay in Myotubes, value relative to DMSO” value ([2]; 5 uM) was 1.402. For the same compound, the “Burkin Assay in Myotubes, value relative to DMSO” value ([2]; 10 uM) was 1.412, the “Burkin Assay in Myotubes, value relative to DMSO” value ([2]; 20 uM) was 0.5653 and the “Burkin Assay in Myotubes, value relative to DMSO” value ([2]; 40 uM) was 0.6488. For the same compound, the “CMV-LACZ in Myotubes, value relative to DMSO” value ([3]; 0.5 uM) was 0.9674, the “CMV-LACZ in Myotubes, value relative to DMSO” value ([3]; 1 uM) was 1.0126 and the “CMV-LACZ in Myotubes, value relative to DMSO” value ([3]; 5 uM) was 1.0327. The “CMV-LACZ in Myotubes, value relative to DMSO” value ([3]; 10 uM) was 1.0297, the “CMV-LACZ in Myotubes, value relative to DMSO” value ([3]; 20 uM) was 1.0224 and the “CMV-LACZ in Myotubes, value relative to DMSO” value ([3]; 40 uM) was 1.1212. The “CMV-LACZ in Myoblasts, value relative to DMSO” value ([4]; 0.5 uM) was 0.7466, the “CMV-LACZ in Myoblasts, value relative to DMSO” value ([4]; 1 uM) was 0.9491 and the “CMV-LACZ in Myoblasts, value relative to DMSO” value ([4]; 5 uM) was 0.9823. The “CMV-LACZ in Myoblasts, value relative to DMSO” value ([4]; 10 uM) was 0.9778, the “CMV-LACZ in Myoblasts, value relative to DMSO” value ([4]; 20 uM) was 1.0519 and the “CMV-LACZ in Myoblasts, value relative to DMSO” value ([4]; 40 uM) was 0.5959.

For `Cn1c(-c2ccccc2)cc2ccccc21` [MLS001215074-01], the “Burkin Assay in Myoblasts, signal relative to DMSO” value ([1]; 0.5 uM) was 1.023, the “Burkin Assay in Myoblasts, signal relative to DMSO” value ([1]; 1 uM) was 0.9004 and the “Burkin Assay in Myoblasts, signal relative to DMSO” value ([1]; 5 uM) was 0.9431. For the same compound, the “Burkin Assay in Myoblasts, signal relative to DMSO” value ([1]; 10 uM) was 0.9738, the “Burkin Assay in Myoblasts, signal relative to DMSO” value ([1]; 20 uM) was 0.7339 and the “Burkin Assay in Myoblasts, signal relative to DMSO” value ([1]; 40 uM) was 0.5974. For the same compound, the “Burkin Assay in Myotubes, α7 integrin LacZ reporter signal relative to DMSO” value ([2]; 0.5 uM) was 0.7886, the “Burkin Assay in Myotubes, α7 integrin LacZ reporter signal relative to DMSO” value ([2]; 1 uM) was 0.8307 and the “Burkin Assay in Myotubes, α7 integrin LacZ reporter signal relative to DMSO” value ([2]; 5 uM) was 1.05. For the same compound, the “Burkin Assay in Myotubes, α7 integrin LacZ reporter signal relative to DMSO” value ([2]; 10 uM) was 1.132, the “Burkin Assay in Myotubes, α7 integrin LacZ reporter signal relative to DMSO” value ([2]; 20 uM) was 0.7505 and the “Burkin Assay in Myotubes, α7 integrin LacZ reporter signal relative to DMSO” value ([2]; 40 uM) was 0.8488. The “CMV-LACZ in Myotubes, signal relative to DMSO” value ([3]; 0.5 uM) was 0.8752, the “CMV-LACZ in Myotubes, signal relative to DMSO” value ([3]; 1 uM) was 0.9238 and the “CMV-LACZ in Myotubes, signal relative to DMSO” value ([3]; 5 uM) was 0.8364. The “CMV-LACZ in Myotubes, signal relative to DMSO” value ([3]; 10 uM) was 0.8583, the “CMV-LACZ in Myotubes, signal relative to DMSO” value ([3]; 20 uM) was 0.8700 and the “CMV-LACZ in Myotubes, signal relative to DMSO” value ([3]; 40 uM) was 0.9930. The “CMV-LACZ in Myoblasts (β-galactosidase activity relative to DMSO)” value ([4]; 0.5 uM) was 0.7877, the “CMV-LACZ in Myoblasts (β-galactosidase activity relative to DMSO)” value ([4]; 1 uM) was 0.7800 and the “CMV-LACZ in Myoblasts (β-galactosidase activity relative to DMSO)” value ([4]; 5 uM) was 1.1754. The “CMV-LACZ in Myoblasts (β-galactosidase activity relative to DMSO)” value ([4]; 10 uM) was 1.0294, the “CMV-LACZ in Myoblasts (β-galactosidase activity relative to DMSO)” value ([4]; 20 uM) was 1.1277 and the “CMV-LACZ in Myoblasts (β-galactosidase activity relative to DMSO)” value ([4]; 40 uM) was 1.1432.

With `Cc1nnc(-c2ccc(N3CCOCC3)c([N+](=O)[O-])c2)o1` [MLS001359861-01] the “Burkin Assay in Myoblasts, signal relative to DMSO” value ([1]; 0.5 uM) was 0.9353, the “Burkin Assay in Myoblasts, signal relative to DMSO” value ([1]; 1 uM) was 0.9376 and the “Burkin Assay in Myoblasts, signal relative to DMSO” value ([1]; 5 uM) was 0.9484. The “Burkin Assay in Myoblasts, signal relative to DMSO” value ([1]; 10 uM) was 0.9324, the “Burkin Assay in Myoblasts, signal relative to DMSO” value ([1]; 20 uM) was 0.8725 and the “Burkin Assay in Myoblasts, signal relative to DMSO” value ([1]; 40 uM) was 0.9113. The “Burkin Assay in Myotubes, α7 integrin LacZ reporter signal relative to DMSO” value ([2]; 0.5 uM) was 1.095, the “Burkin Assay in Myotubes, α7 integrin LacZ reporter signal relative to DMSO” value ([2]; 1 uM) was 1.184 and the “Burkin Assay in Myotubes, α7 integrin LacZ reporter signal relative to DMSO” value ([2]; 5 uM) was 0.9088. For the same compound, the “Burkin Assay in Myotubes, α7 integrin LacZ reporter signal relative to DMSO” value ([2]; 10 uM) was 0.876, the “Burkin Assay in Myotubes, α7 integrin LacZ reporter signal relative to DMSO” value ([2]; 20 uM) was 1.0337 and the “Burkin Assay in Myotubes, α7 integrin LacZ reporter signal relative to DMSO” value ([2]; 40 uM) was 0.804. For the same compound, the “CMV-LACZ in Myotubes, signal relative to DMSO” value ([3]; 0.5 uM) was 0.8978, the “CMV-LACZ in Myotubes, signal relative to DMSO” value ([3]; 1 uM) was 0.9533 and the “CMV-LACZ in Myotubes, signal relative to DMSO” value ([3]; 5 uM) was 0.9547. For the same compound, the “CMV-LACZ in Myotubes, signal relative to DMSO” value ([3]; 10 uM) was 1.1230, the “CMV-LACZ in Myotubes, signal relative to DMSO” value ([3]; 20 uM) was 0.9976 and the “CMV-LACZ in Myotubes, signal relative to DMSO” value ([3]; 40 uM) was 0.9412. The “CMV-LACZ in Myoblasts (β-galactosidase activity relative to DMSO)” value ([4]; 0.5 uM) was 0.9444, the “CMV-LACZ in Myoblasts (β-galactosidase activity relative to DMSO)” value ([4]; 1 uM) was 0.9184 and the “CMV-LACZ in Myoblasts (β-galactosidase activity relative to DMSO)” value ([4]; 5 uM) was 0.9009. The “CMV-LACZ in Myoblasts (β-galactosidase activity relative to DMSO)” value ([4]; 10 uM) was 0.8064, the “CMV-LACZ in Myoblasts (β-galactosidase activity relative to DMSO)” value ([4]; 20 uM) was 0.9074 and the “CMV-LACZ in Myoblasts (β-galactosidase activity relative to DMSO)” value ([4]; 40 uM) was 1.0330.
